The record followed here is patent US11433036B2, “Oxprenolol compositions for treating cancer” (priority 2013, dated 2022).

Read-outs that look alike come from different tables or passages of the source.

Test [1] concerns Yoshida Hepatoma Model. The source says: (§1) Ascites hepatoma Yoshida AH-130 cells (10^3 cells) were inoculated into about 200 gram male Wistar rats by i.p. injection. Alternatively animals received saline injection only (sham). The day after inoculation animals were randomized into various groups and then received twice daily treatment with either placebo or various test compositions by oral gavage over a period of up to 17 days. The primary endpoints of the study included assessment of body weight, body composition (with and without tumor), and survival. Body composition was monitored by NMR. Echocardiography was used in instances to monitor condition of the heart. Organ weight was assessed at the end of the study (or after death) as a secondary endpoint. In addition, locomotor activity and food intake were also assessed. FIG. 1 provides a diagram showing the design study. R- and S-oxprenolol were manufactured to order by Peakdale Molecular, Peakdale Science Park, Sheffield Road. Chapel-en-le-Frith, High Peak SK23 0PG, UK
To study the effect of the test compounds on fat mass, the fat mass were determined at the end of the study.
To study the effect of the test compounds as mixtures of enantiomers on fat mass, the fat mass were determined at the end of the study.

Test [2] concerns Yoshida Hepatoma Model.
Description: as §1
To study the effect of the test compounds on body weight, body weight was monitored over time.
To study the effect of the test compounds as mixtures of enantiomers on body weight, body weight was monitored over time.
This is another data set of the same source.

Test [3] concerns Yoshida Hepatoma Model.
Description: as §1
To study the effect of the test compounds on lean body mass, lean mass was determined at the end of the study.
To study the effect of the test compounds as mixtures of enantiomers on lean body mass, lean mass was determined at the end of the study.
This is another data set of the same source.

The test system of test [4] is Yoshida Hepatoma Model. The test can be described thus: Survival in Yoshida hepatoma model. The format is in vivo, male Wistar rats.
Description: as §1
To study the effect of S-oxprenolol and R-oxprenolol on survival, survival was monitored over time.

Test [5] has as its system Yoshida Hepatoma Model. To be noted: 5, 12.5, 25 or 50 mg/kg/day; end of study; FIGS. 13A-13D.
Description: as §1
To study the effect of the test compounds on skeletal muscle atrophy and heart weight, the skeletal muscle mass and heart weight were determined at the end of the study.

In test [6] the test system is Yoshida Hepatoma Model. Particulars: Day 11; for food intake: FIG. 17; for locomotor activity: FIG. 18.
Description: as §1
To study the effect of the test compounds on quality of life, parameters of quality of life such as food intake and locomotor activity were assessed at Day 11.

Test [7] has as its system Hela-93 (cervix carcinoma). Particulars: Hela-93 cells; BrdU incorporation and XTT assay; FIG. 20. The protocol: (§2) The effect of the test compounds on tumor growth was also evaluated in an in vitro experiment with various tumor cells, namely, Kelly (neuroblastoma), Hela-93 (cervix carcinoma), and B16V (melanoma). Cell growth was assessed by BrdU incorporation (left of FIG. 20) and XTT assay (right of FIG. 20). Doxorubicin was used as a positive control.
In general terms: Incorporation of labelled thymidine or its analogues reports DNA synthesis.

A further test has as its system Kelly (neuroblastoma). To be noted: Kelly cells; BrdU incorporation and XTT assay; FIG. 20. The protocol:
as §2

A further test has as its system B16V (melanoma). To be noted: B16V cells; BrdU incorporation and XTT assay; FIG. 20. The protocol:
as §2

Test [8] has as its system Yoshida Hepatoma Model. To be noted: 5, 12.5, 25 or 50 mg/kg/day vs placebo; end of study; FIGS. 19A and 19B.
Description: as §1
To study the effect of the test compounds on tumor growth, tumor growth was assessed at the end of the study.

Setting [9] is: 5 mg/kg/day or 25 mg/kg/day vs placebo.
Where [10] appears, read: 25 mg/kg/day S-oxprenolol vs same amount of R-oxprenolol.

On to `C=CCOc1ccccc1OCC(O)CNC(C)C` (racemic) [racemic mixture of oxprenolol, 1-[2-(allyloxy)phenoxy]-3-(isopropylamino)propan-2-ol, reference compound], for which the “weight of white adipose tissue (WAT)” value in the test with Yoshida Hepatoma Model [1] (S-oxprenolol 20 mg/kg/day vs racemic mixture 40 mg/kg/day, FIG. 16A) was “rats receiving S-oxprenolol had significantly better effect in preserving the white adipose tissue than those receiving the racemic mixture”. Further, the “weight of brown adipose tissue (BAT)” value with Yoshida Hepatoma Model [1] (S-oxprenolol 20 mg/kg/day vs racemic mixture 40 mg/kg/day, FIG. 16B) is listed as “rats receiving S-oxprenolol had better effect in preserving the brown adipose tissue than those receiving the racemic mixture”. For the same compound, the “change in body weight” value with Yoshida Hepatoma Model [2] (S-oxprenolol 20 mg/kg/day vs racemic mixture 40 mg/kg/day, FIG. 8) is reported as “rats receiving S-oxprenolol had less body weight loss than those receiving the racemic mixture”. Besides, in the test with Yoshida Hepatoma Model [3] (S-oxprenolol 20 mg/kg/day vs racemic mixture 40 mg/kg/day, FIG. 11A), the “change in lean body mass” value was “rats receiving S-oxprenolol had less change in lean body weight than those receiving the racemic mixture”. In the test on Yoshida Hepatoma Model [3] (S-oxprenolol 20 mg/kg/day vs racemic mixture 40 mg/kg/day, FIG. 11B), the “change in lean body mass/days alive” value is on record as “rats receiving S-oxprenolol had less change in lean body mass than those receiving the racemic mixture”. In addition, in the test on Yoshida Hepatoma Model [4] (S-oxprenolol 20 mg/kg/day vs racemic mixture 40 mg/kg/day (same amount of S-oxprenolol), FIG. 3), the percent survival result is “rats receiving S-oxprenolol had longer survival than those receiving the racemic mixture”.
Turning to `C=CCOc1ccccc1OC[C@H](O)CNC(C)C` [R-oxprenolol, (R)-(+)-oxprenolol, reference compound], the “change in fat mass” value in the test with Yoshida Hepatoma Model [1] (5, 12.5, 25 or 50 mg/kg/day, FIG. 14) is “rats receiving S-oxprenolol at 12.5 mg/kg/day or higher had less fat mass loss than those in the placebo group or those receiving R-oxprenolol”. Moreover, the “weight of white adipose tissue (WAT)” value with Yoshida Hepatoma Model [1] (5, 12.5, 25 or 50 mg/kg/day, FIG. 15A) is given as “S-oxprenolol had better effects in reducing fat wasting than R-oxprenolol”. Moreover, the “weight of brown adipose tissue (BAT)” value with Yoshida Hepatoma Model [1] (5, 12.5, 25 or 50 mg/kg/day, FIG. 15B) was “both enantiomers of oxprenolol protect BAT mass”. Besides, in the test on Yoshida Hepatoma Model [2] (5, 12.5, 25 or 50 mg/kg/day, FIG. 7), the “change of body weight” value is “rats receiving S-oxprenolol had less body weight loss than those in the placebo group and those administered with R-oxprenolol”. Further, the “mass of skeletal muscle (gastrocnemius, tibialis anterior, soleus, EDL)” value in the test with Yoshida Hepatoma Model [5] was “does not have this protective effect”. For the same compound, the values for the food intake entry in the test with Yoshida Hepatoma Model [6] (setting [9]) and in the test with Yoshida Hepatoma Model [6] (setting [10]) were “higher food intake than those in the placebo group” and “Rats receiving 25 mg/kg/day S-oxprenolol had higher food intake than those receiving the same amount of R-oxprenolol”, respectively. The results for the locomotor activity entry in the test with Yoshida Hepatoma Model [6] (setting [9]) and with Yoshida Hepatoma Model [6] (setting [10]) were “higher locomotive activity than those in the placebo group” and “Rats receiving 25 mg/kg/day S-oxprenolol had higher locomotive activity than those receiving the same amount of R-oxprenolol”, respectively. Besides, the tumor cell proliferation entry (in [7]; in the test with Kelly (neuroblastoma); in the test on B16V (melanoma)) was “neither S-oxprenolol nor R-oxprenolol showed any inhibitor effects on tumor cell proliferation” in each case. Besides, the “change in lean body mass” value in the test with Yoshida Hepatoma Model [3] (5, 12.5, 25 or 50 mg/kg/day, FIG. 10) is listed as “rats receiving S-oxprenolol at doses of 12.5 mg/kg/day or higher had less change in lean body mass than those receiving R-oxprenolol”. In addition, the percent survival entry is “did not show statistically significant improvement on survival over those in the placebo group” in the test with Yoshida Hepatoma Model [4] (25 mg/kg/day or 50 mg/kg/day, oral gavage twice daily, up to 17 days, FIG. 2) and “no statistically significant survival benefit over placebo was observed” with Yoshida Hepatoma Model [4] (R-oxprenolol 5, 12.5, 25 or 50 mg/kg/day, FIG. 6). In addition, in the test on Yoshida Hepatoma Model [4] (animal inoculated with hepatocellular carcinoma cells, summary statement), the survival result is on record as “S-oxprenolol, but not R-oxprenolol, significantly improved survival”. The “tumor growth (tumor volume, total number of cells in a tumor)” value in the test on Yoshida Hepatoma Model [8] is “did not have any significant effects on tumor growth compared to those in the placebo group”.
Turning to `CC(C)NC[C@H](O)COc1cccc2[nH]ccc12` [S-pindolol, reference compound], in the test with Yoshida Hepatoma Model [4] (S-oxprenolol vs placebo or S-pindolol 3 mg/kg/day, FIG. 4), the percent survival entry was “S-oxprenolol was significantly superior to either placebo or S-pindolol at its preferred dose”.
